From PubChem BioAssay AID624129 (Sanford-Burnham Center for Chemical Genomics, 2012)
Active and inactive are the calls of the source. The rule behind the calls is not given here.

Assays:
Assay in all cases: CXCR6 receptor antagonists, dose response, cell-based, beta-arrestin, DiscoveRx, APJ panel, uHTS hits (AID 624129)
[1] = biological target: Beta-galactosidase (Escherichia coli) (UniProt Q8VNN2); conditions: CXCR6 beta-arrestin (DiscoveRx) antagonist cell assay, b-galactosidase
[2] = biological target: Apelin receptor (Homo sapiens) (UniProt P35414); conditions: CXCR6 beta-arrestin (DiscoveRx) antagonist cell assay, APJ
[3] = biological target: C-C chemokine receptor type 6 (Homo sapiens) (UniProt P51684); conditions: CXCR6 beta-arrestin (DiscoveRx) antagonist cell assay
[4] = biological target: C-X-C chemokine receptor type 6 (Homo sapiens) (UniProt O00574); conditions: CXCR6 beta-arrestin (DiscoveRx) antagonist cell assay; for inhibition: CXCR6, run 1, dose range 2, at 80 µM (top of the series)
C-X-C chemokine receptor type 6 (Homo sapiens), sequence (O00574 whole entry, looked up): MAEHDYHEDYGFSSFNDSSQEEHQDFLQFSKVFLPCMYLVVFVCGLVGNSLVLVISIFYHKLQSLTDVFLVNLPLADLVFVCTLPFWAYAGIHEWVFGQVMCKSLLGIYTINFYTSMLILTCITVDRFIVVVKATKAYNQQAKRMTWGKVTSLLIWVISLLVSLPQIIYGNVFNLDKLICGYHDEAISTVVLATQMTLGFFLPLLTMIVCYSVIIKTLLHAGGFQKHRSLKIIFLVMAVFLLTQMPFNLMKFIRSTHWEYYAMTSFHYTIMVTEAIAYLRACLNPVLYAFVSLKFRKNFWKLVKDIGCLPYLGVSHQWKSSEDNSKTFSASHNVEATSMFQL

[5] = dose range 1, mean IC50 across replicates
[6] = CCR6, dose range 1, mean IC50 across replicates
[7] = CXCR6, dose range 1, mean IC50 across replicates

Beta-galactosidase (Escherichia coli), sequence (Q8VNN2 whole entry, looked up): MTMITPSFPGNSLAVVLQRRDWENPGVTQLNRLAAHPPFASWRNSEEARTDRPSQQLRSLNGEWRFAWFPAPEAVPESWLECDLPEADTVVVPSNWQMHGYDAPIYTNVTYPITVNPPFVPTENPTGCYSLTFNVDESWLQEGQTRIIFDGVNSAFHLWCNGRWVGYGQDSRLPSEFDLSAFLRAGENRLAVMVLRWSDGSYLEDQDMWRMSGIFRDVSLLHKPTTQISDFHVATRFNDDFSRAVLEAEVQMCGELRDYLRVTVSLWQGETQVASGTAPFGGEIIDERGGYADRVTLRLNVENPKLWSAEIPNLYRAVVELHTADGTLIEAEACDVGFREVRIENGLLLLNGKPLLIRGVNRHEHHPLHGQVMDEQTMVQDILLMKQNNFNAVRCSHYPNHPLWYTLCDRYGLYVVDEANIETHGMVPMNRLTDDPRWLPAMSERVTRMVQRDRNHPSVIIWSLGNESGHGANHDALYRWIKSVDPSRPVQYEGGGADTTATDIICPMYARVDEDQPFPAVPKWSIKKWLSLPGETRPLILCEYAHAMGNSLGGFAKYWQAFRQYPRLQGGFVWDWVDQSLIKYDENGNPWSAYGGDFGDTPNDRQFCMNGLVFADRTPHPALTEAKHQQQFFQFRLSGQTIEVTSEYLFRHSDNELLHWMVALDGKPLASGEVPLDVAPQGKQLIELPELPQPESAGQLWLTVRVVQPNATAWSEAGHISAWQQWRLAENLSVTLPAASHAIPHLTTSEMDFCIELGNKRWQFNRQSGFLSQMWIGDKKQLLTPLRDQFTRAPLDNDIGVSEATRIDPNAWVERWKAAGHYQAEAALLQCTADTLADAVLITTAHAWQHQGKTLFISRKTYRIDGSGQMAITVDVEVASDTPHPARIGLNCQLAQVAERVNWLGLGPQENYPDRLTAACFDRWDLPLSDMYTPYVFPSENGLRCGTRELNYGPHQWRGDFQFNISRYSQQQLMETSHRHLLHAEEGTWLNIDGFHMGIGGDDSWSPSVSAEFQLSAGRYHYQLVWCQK

Compound | IC50 ([1]; dose range 1) | IC50 [1, 5] [µM] | IC50 ([2]; dose range 1) [µM] | IC50 [2, 5] [µM] | IC50 ([2]; run 2, dose range 1) [µM] | IC50 ([2]; run 3, dose range 1) [µM] | IC50 ([3]; CCR6, dose range 1) [µM] | IC50 [3, 6] [µM] | IC50 ([3]; CCR6, run 2, dose range 1) [µM] | IC50 ([4]; CXCR6, dose range 1) | IC50 [4, 7] [µM] | IC50 ([4]; CXCR6, run 1, dose range 2) [µM] | IC50 ([4]; CXCR6, run 2, dose range 1) [µM] | IC50 ([4]; CXCR6, run 2, dose range 2) [µM] | inhibition [4] [%]
CCC(=O)OCCNc1cc(Sc2nc3ccccc3s2)c2nonc2c1[N+](=O)[O-] | > 80 µM (inactive) | > 80 | 32.9 | 28 | 23.1 | > 80 | 8.93 | 8.72 | 8.5 | 8.94 µM | 8.4 | 10 | 8.87 | 5.77 | –
Cc1ccc(-c2oc3ccccc3c(=O)c2O)cc1 | > 80 µM (inactive) | > 80 | 22.8 | 14.7 | 12.2 | 9.18 | – | 9.06 | 9.06 | 7.44 µM | 6.98 | – | 6.53 | – | 28.7
COC(=O)[C@@H]1[C@@H](C#N)C2(c3ccccc3-c3ccccc32)N(c2ccc(Cl)cc2)N1C#N | > 80 µM (inactive) | > 80 | – | > 80 | > 80 | > 80 | – | > 80 | > 80 | > 80 µM (inactive) | > 80 | – | > 80 | – | 11.1
Cc1cccc(C)c1NC(=O)c1nc(S(=O)(=O)Cc2ccccc2)ncc1Cl | > 80 µM (inactive) | > 80 | – | > 80 | > 80 | > 80 | – | > 80 | > 80 | > 80 µM (inactive) | > 80 | – | > 80 | – | -9.6
CC(C)N=C1CCCC1C(=S)SSC(=S)C1CCCC1=NC(C)C (stereo unspecified) | > 80 µM (inactive) | > 80 | 13.8 | 23.7 | 21.8 | 35.4 | 9.02 | 10.2 | 11.4 | inactive | 11.4 | 4.08 | 17.8 | 4.99 | –
C=C1C(=O)O[C@@H]2C[C@@H](C)[C@@H]3C=CC(=O)[C@@]3(C)[C@@H](OC(=O)CC(=O)O[C@H]3[C@@H]4C(=C)C(=O)O[C@@H]4C[C@@H](C)[C@@H]4C=CC(=O)[C@]43C)[C@H]12 | > 80 µM (inactive) | > 80 | 4.62 | 4.97 | 5.28 | 5.02 | 3.11 | 3.35 | 3.59 | 4.65 µM | 3.94 | 3.8 | 4.03 | 3.28 | –
Cc1ccc(CN2C(=O)C(Cc3ccccc3)Nc3ncnc(N4CCN(c5ccccc5)CC4)c32)cc1 (stereo unspecified) | 3.65 µM | 3.65 | 3.71 | 4.54 | 5.03 | 4.88 | 2.72 | 2.47 | 2.23 | 3.59 µM | 2.93 | 2.45 | 2.76 | 2.93 | –
CN(C)C(=O)CSc1cccc2cccnc12 | > 80 µM (inactive) | > 80 | – | > 80 | > 80 | > 80 | – | > 80 | > 80 | > 80 µM (inactive) | > 80 | – | > 80 | – | -25
C/C(=N\NC(=O)COc1ccccc1-c1ccccc1)c1ccccn1 | > 80 µM (inactive) | > 80 | 2.32 | 2.46 | 2.59 | > 80 | 2.07 | 2.25 | 2.44 | 2.76 µM | 2.31 | 2.01 | 2.94 | 1.51 | –
CC(Oc1ccc(Br)cc1)C(=O)Nc1nc(-c2ccccn2)cs1 (stereo unspecified) | > 80 µM (inactive) | > 80 | 6.97 | 5.95 | 5.67 | 5.22 | 5.51 | 6.66 | 7.8 | 6.74 µM | 5.51 | 4.23 | 6.13 | 4.93 | –
COc1ccc(CN2C(=O)C(Cc3ccccc3)Nc3ncnc(N4CCN(c5ccccc5)CC4)c32)cc1 (stereo unspecified) | 7.82 µM | 7.82 | 6.61 | 9.3 | 9.95 | 11.3 | 4.6 | 4.33 | 4.05 | 8.37 µM | 5.48 | 3.14 | 4.54 | 5.88 | –
O=C1C=CC(=O)N1c1ccc(-c2nc3ccccc3o2)cc1 | > 80 µM (inactive) | > 80 | 5.45 | 5.31 | 5.18 | > 80 | 2.84 | 3.1 | 3.36 | 4.9 µM | 4.9 | – | > 80 | – | 128
COc1ccc(OC)c(/C=C/c2ccc3cccc(O)c3n2)c1 | > 80 µM (inactive) | > 80 | 6.47 | 8.4 | 10.3 | 8.46 | 3.73 | 5.88 | 8.03 | 4.15 µM | 5.39 | 5.17 | 5.26 | 6.98 | –
CC(Oc1cccc(Cl)c1)C(=O)Nc1nc(-c2ccccn2)cs1 (stereo unspecified) | > 80 µM (inactive) | > 80 | 8.02 | 8.47 | 8.75 | 8.64 | 6.82 | 7.6 | 8.37 | 8.97 µM | 7.17 | 5.61 | 7.93 | 6.18 | –
N#CC(C#N)=C1C=CC=CN1/C(=C\c1ccco1)C(=O)c1ccc(Br)cc1 | > 80 µM (inactive) | > 80 | – | > 80 | > 80 | > 80 | – | > 80 | > 80 | > 80 µM (inactive) | > 80 | – | > 80 | – | 19.9
O=C(Nc1nc2c(F)cc(F)cc2s1)c1ccccn1 | > 80 µM (inactive) | > 80 | 0.798 | 1.59 | 2.38 | > 80 | 0.66 | 1.03 | 1.4 | 1.4 µM | 1.11 | 0.803 | 1.23 | 1 | –
CC(Oc1ccc(F)cc1)C(=O)Nc1nc(-c2ccccn2)cs1 (stereo unspecified) | > 80 µM (inactive) | > 80 | 9.28 | 9.34 | 8.14 | 10.6 | 7.82 | 8.7 | 9.57 | 8.77 µM | 7.74 | 5.99 | 8.41 | 7.81 | –
COc1ccc(CCN2C(=O)C=CC2=O)cc1OC | > 80 µM (inactive) | > 80 | 9.45 | 21.1 | 8.84 | 45.1 | 4.86 | 6.32 | 7.78 | 9.39 µM | 8.38 | – | 7.37 | – | 122
O=[N+]([O-])c1c(Nc2cccc(O)c2)cc(Cl)c2nonc12 | > 80 µM (inactive) | > 80 | 18 | 19.1 | 17 | 22.2 | 12.2 | 13.3 | 14.3 | inactive | 13.8 | – | 11.3 | – | 113
Cn1c(O)c(C2=NNC(c3ccc(Cl)cc3)C2)c(=O)n(C)c1=O (stereo unspecified) | 26.3 µM | 26.3 | 9.91 | 13.1 | 20 | 9.47 | 11.2 | 13.6 | 16 | inactive | 11.7 | 6.31 | 17 | 8.11 | –
O=[N+]([O-])c1cc2oc3c(c2c(C=NCc2ccccc2)c1O)CCCC3 | > 80 µM (inactive) | > 80 | 25.5 | 25.5 | > 80 | > 80 | 27.3 | 39.8 | 52.2 | inactive | 20.9 | 4.04 | > 80 | 6.46 | –
CCCC(=O)OCCNc1cc(Sc2nc3ccccc3[nH]2)c2nonc2c1[N+](=O)[O-] | inactive | 50.4 | 12.4 | 9.49 | 5.87 | 10.2 | 5.26 | 5.55 | 5.83 | 5.82 µM | 6.71 | 7.57 | 6.36 | 7.1 | –
